Laboratory results as given in the supplement of paper PMC10307832.

Experiments:
Assay in all cases: relative viability (nuclei count vs DMSO), 5 days (fraction); higher = more cells survive
AGI-6780 + Crizotinib = compound: O=C(Nc1cccc(C(F)(F)F)c1)Nc1cc(S(=O)(=O)NC2CC2)ccc1-c1ccsc1 [AGI-6780] + C[C@@H](Oc1cc(-c2cnn(C3CCNCC3)c2)cnc1N)c1c(Cl)ccc(F)c1Cl [Crizotinib] (partner 1 µM)
Method in brief: (§1)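 The day after seeding in 1536-well plates, lung cancer cell lines were treated by pin tool with a single drug, or with a fixed anchor-drug dose together with five library-drug doses (not always all listed) in √10 steps. After 5 days, a combined fix-and-stain solution (final 0.05% Triton X-100, 1% formaldehyde, 1 ug/ml Hoechst) was added. Nuclei counted on 4× images gave relative viability as treated counts over vehicle counts, reported as the median of duplicate plates.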

AGI-6780 + Lapatinib = compound: O=C(Nc1cccc(C(F)(F)F)c1)Nc1cc(S(=O)(=O)NC2CC2)ccc1-c1ccsc1 [AGI-6780] + CS(=O)(=O)CCNCc1ccc(-c2ccc3ncnc(Nc4ccc(OCc5cccc(F)c5)c(Cl)c4)c3c2)o1 [Lapatinib] (partner 2 µM)
Method in brief: as §1

AGI-6780 + Decitabine = compound: O=C(Nc1cccc(C(F)(F)F)c1)Nc1cc(S(=O)(=O)NC2CC2)ccc1-c1ccsc1 [AGI-6780] + Nc1ncn([C@H]2C[C@H](O)[C@@H](CO)O2)c(=O)n1 [Decitabine] (partner 2 µM)
Method in brief: as §1

AGI-6780 + Tozasertib = compound: O=C(Nc1cccc(C(F)(F)F)c1)Nc1cc(S(=O)(=O)NC2CC2)ccc1-c1ccsc1 [AGI-6780] + Cc1cc(Nc2cc(N3CCN(C)CC3)nc(Sc3ccc(NC(=O)C4CC4)cc3)n2)n[nH]1 [Tozasertib] (partner 0.1 µM)
Method in brief: as §1

Cell Line	relative viability (AGI-6780 + Crizotinib; first compound 0.08 µM)	relative viability (AGI-6780 + Crizotinib; first compound 0.253 µM)	relative viability (AGI-6780 + Crizotinib; first compound 0.8 µM)	relative viability (AGI-6780 + Crizotinib; first compound 2.53 µM)	relative viability (AGI-6780 + Crizotinib; first compound 8 µM)	relative viability (AGI-6780 + Lapatinib; first compound 0.08 µM)	relative viability (AGI-6780 + Lapatinib; first compound 0.253 µM)	relative viability (AGI-6780 + Lapatinib; first compound 0.8 µM)	relative viability (AGI-6780 + Lapatinib; first compound 2.53 µM)	relative viability (AGI-6780 + Lapatinib; first compound 8 µM)	relative viability (AGI-6780 + Decitabine; first compound 0.08 µM)	relative viability (AGI-6780 + Decitabine; first compound 0.253 µM)	relative viability (AGI-6780 + Decitabine; first compound 0.8 µM)	relative viability (AGI-6780 + Decitabine; first compound 2.53 µM)	relative viability (AGI-6780 + Decitabine; first compound 8 µM)	relative viability (AGI-6780 + Tozasertib; first compound 0.08 µM)	relative viability (AGI-6780 + Tozasertib; first compound 0.253 µM)	relative viability (AGI-6780 + Tozasertib; first compound 0.8 µM)	relative viability (AGI-6780 + Tozasertib; first compound 2.53 µM)	relative viability (AGI-6780 + Tozasertib; first compound 8 µM)
Calu-6	0.822	0.829	0.948	0.824	0.752	0.989	1.01	1.22	1.14	0.974										
ChaGo-K-1	1.18	1.06	1.43	0.959	1.14						0.507	0.534	0.512	0.455	0.425	0.238	0.229	0.221	0.197	0.222
EBC-1	0.199	0.184	0.186	0.175	0.183	0.224	0.21	0.198	0.202	0.201										
EKVX	0.904	0.813	1.15	0.888	1.07	0.234	0.19	0.217	0.192	0.216	0.347	0.343	0.363	0.324	0.432	0.349	0.39	0.412	0.335	0.366
EMC-BAC-2	0.791	0.728	0.763	0.668	0.78	0.919	0.929	0.878	0.725	0.94		1.01	0.927	0.855	1.04	0.278	0.295	0.249	0.253	0.324
EPLC-272H	0.888	0.929	0.841	0.714	0.791	0.921	0.949	0.881	0.747	1.11	0.405	0.348	0.359	0.372	0.374		0.307	0.281	0.187	0.257
H3255	0.884	0.848	0.997	0.84	0.921	0.222	0.275	0.248	0.204	0.263	0.54	0.612	0.719		0.542	0.593	0.52	0.462	0.585	0.552
HARA	1.05	1.08	0.894	1.01	1.07	0.872	0.825	0.613	0.681	0.707	0.481	0.446	0.513	0.402	0.61	0.0824	0.106	0.114	0.0867	0.111
